Data reported in PMC6539868, “Syntheses and Biological Studies of Cu(II) Complexes Bearing Bis(pyrazol-1-yl)- and Bis(triazol-1-yl)-acetato Heteroscorpionate Ligands” (Molecules, 2019).

What was measured:
[1] = test system: A431; test: MTT cytotoxicity assay, 2D monolayer; format: cell-based, human; conditions: 72 h, MTT test, cervical carcinoma; read-out: IC50 (µM) ± S.D. A431
Description: (§1) Human lung (A549), colon (HCT-15 and LoVo) and breast (MCF-7) carcinoma cell lines were obtained from American Type Culture Collection (ATCC, Rockville, MD, USA). Human pancreatic BxPC3 carcinoma cells were obtained from European Collection of Cell Culture (ECACC, Salisbury, UK). Human ovarian 2008 cancer cells were kindly provided by Prof. G. Marverti (Dept. of Biomedical Science of Modena University, Modena, Italy). Human squamous cervical A431 carcinoma cells were kindly provided by Prof. F. Zunino (Division of Experimental Oncology B, Istituto Nazionale dei Tumori, Milan, Italy). The LoVo-OXP cells were obtained as previously described. Cell lines were maintained in culture in the logarithmic phase at 37 °C in a 5% carbon dioxide atmosphere using the following media added of 10% fetal calf serum (Euroclone, Milan, Italy), antibiotics (50 units/mL penicillin and 50 μg/mL streptomycin), and 2 mM L-glutamine: (i) RPMI-1640 medium (Euroclone) for HCT-15, A431, MCF-7, BxPC3 and 2008 cells; (ii) F-12 HAM’S (Sigma Chemical Co.) for A549, LoVo and LoVo-OXP cells.
(§2) The growth inhibitory effect towards 2D tumor cell lines was evaluated by means of MTT assay as previously described. IC50 values were calculated by four parameters logistic (4-PL) model. All the values are the means ± SD of not less than five measurements starting from three different cell cultures.
(§3) The in vitro antitumor activity of copper(II) complexes 1–3 and the uncoordinated ligands [HC(COOH)(pz^Me2)2], [HC(COOH)(pz)2] and [HC(COOH)(tz)2] was evaluated against a panel of human cancer cell lines derived from solid tumors. Adherent cell lines representative of cervical (A431), pancreatic (BxPC3) colon (HCT-15), breast (MCF-7), lung (A549), and ovarian (2008) cancers, differently sensitive to cisplatin, were exposed to the indicated compounds for 72 h.

[2] = test system: MCF-7; test: MTT cytotoxicity assay, 2D monolayer; format: cell-based, human; conditions: 72 h, MTT test, breast carcinoma; read-out: IC50 (µM) ± S.D. MCF-7
Description: as §1, §2, §3

[3] = test system: HCT-15; test: MTT cytotoxicity assay, 2D monolayer; format: cell-based, human; conditions: 72 h
Description: as §1, §2, §3

[4] = test system: 2008; test: MTT cytotoxicity assay, 2D monolayer; format: cell-based, human; conditions: 72 h, MTT test, ovarian cancer; read-out: IC50 (µM) ± S.D. 2008
Description: as §1, §2, §3

[5] = test system: A549; test: MTT cytotoxicity assay, 2D monolayer; format: cell-based, human; conditions: 72 h
Description: as §1, §2, §3

[6] = test system: BxPC3; test: MTT cytotoxicity assay, 2D monolayer; format: cell-based, human; conditions: 72 h, MTT test, pancreatic carcinoma; read-out: IC50 (µM) ± S.D. BxPC3
Description: as §1, §2, §3

[7] = Solubility; format: physicochemical
[8] = test system: LoVo; test: MTT cytotoxicity assay, cross-resistance profile; format: cell-based, human; conditions: 72 h, MTT test, oxaliplatin-sensitive colon cancer cells; read-out: IC50 (µM) ± S.D. LoVo
Description: as §1, §2
(§4) HCT-15 colon cancer cells are notoriously poorly chemosensitive to cisplatin. […] As for cisplatin, the clinical effectiveness of OXP is seriously hampered by the cancer cell resistance and, at present, few other drug regimens are available for patients with OXP-refractory colorectal cancers. […] The RF values (calculated by dividing IC50 for resistant cells by those for sensitive ones) were about 10 times lower than that of OXP, excluding the occurrence of cross-resistance phenomena.

[9] = test system: LoVo-OXP; test: MTT cytotoxicity assay, cross-resistance profile; format: cell-based, human
Description: as §1, §2, §4

[10] = test system: HCT-15 colon cancer cell spheroids; test: Acid phosphatase (APH) assay in 3D spheroids; format: cell-based, human; conditions: 72 h, APH test, read-out: IC50 (µM) ± S.D. HCT-15 spheroids
Procedure: Spheroid cultures were obtained by seeding 2.5 × 10^3 HCT-15 cells/well in round bottom non-tissue culture treated 96 well-plate (Greiner Bio-one, Kremsmünster, Austria) in phenol red free RPMI-1640 medium (Sigma Chemical Co.), containing 10% FCS and supplemented with 20% methyl cellulose stock solution.
An APH modified assay was used for determining cell viability in 3D spheroids, as previously described. IC50 values were calculated with a four parameter logistic (4-PL) model. All the values are the means ± SD of not less than four independent experiments.
The in vitro antitumor efficacy of the newly developed compounds was also tested on 3D colon cancer cell culture models. Differently from 2D monolayer culture, 3D spheroid cell culture systems comprise cancer cells in various cell growth stages. Consequently, the multicellular cancer spheroid model is recognized to better reflect the tumor mass in vivo regarding drug permeation, cell interactions, gene expression, hypoxia and nutrient gradients with respect to monolayer cell cultures. Table 4 summarizes the IC50 values obtained after treatment of 3D cell spheroids of human HCT-15 colon cancer cells with copper(II) compounds as well as with cisplatin, as reference drug. In accordance with 2D chemosensitivity assays, complex 3 was scarcely effective, whereas complex 1 was as effective as cisplatin. […] We hypothesize that in this non-proliferative and very resistant tumor model the higher lipophilicity of 1, due to the presence of methyl substituents on the pyrazolyl rings, might be responsible for the enhanced compound penetration in the core area of spheroids.

[11] = Stability to air; format: physicochemical; conditions: also as solutions
[12] = test system: panel of human cancer cell lines derived from solid tumors; test: MTT cytotoxicity, whole panel of human cancer cell lines; format: cell-based; conditions: mean over the cell lines of Table 2, 72 h
Procedure: as §2, §3, §4

[13] = test system: LoVo cells; test: Transmission electron microscopy (TEM) analysis; format: cell-based, human; conditions: IC50 of compound, 24 h
Procedure: Approximately 10^6 LoVo cells were seeded in 24-well plates and, after 24 h incubation, treated with 1 and incubated further 24 h. Samples were then washed with cold PBS, harvested and fixed with 1.5% glutaraldehyde buffer with 0.2 M sodium cacodylate, pH 7.4. After washing with buffer and post-fixation with 1% OsO4 in 0.2 M cacodylate buffer, samples were desiccated and embedded in epoxy resin (Epon Araldite). Sagittal serial sections of about 1 μm were counterstained with toluidine blue; subsequently, sections of 90 nm were stained with uranyl acetate and lead citrate.
Micrographs were taken with a Hitachi H-600 electron microscope (Hitachi, Tokyo, Japan) at 75 kV. All photos were elaborated in Corel Draw 11 (Corel Corporation, Ottawa, ON, Canada).
Transmission electron microscopy (TEM) analysis has been performed in order to investigate the influence of copper compounds on LoVo cells morphology and their organelles.

[14] = test system: LoVo cells; test: Cellular uptake (intracellular copper by GF-AAS); format: cell-based, human; conditions: 24 h, 2 μM
Procedure: LoVo cells (2.5 × 10^6) were seeded in 75 cm^2 flasks in growth medium (20 mL). After overnight incubation, the medium was replaced, and the cells were treated with tested compounds for 24 h. Cell monolayers were then processed and mineralized as previously described. The sample was analyzed for copper by using a Varian AA Duo graphite furnace atomic absorption spectrometer (Varian, Palo Alto, CA, USA) at the wavelength of 324 nm. The calibration curve was obtained using known concentrations of standard solutions purchased from Sigma Chemical Co.
With the purpose of underling a possible correlation between cellular uptake efficiency and cytotoxicity, LoVo cells were treated for 24 h with equimolar concentrations (2 μM) of copper(II) complexes and the intracellular copper amount was quantified by means of Graphite Furnace Atomic Absorption Spectrometry (GF-AAS) analysis. […] In fact, the intracellular copper content detected in LoVo cells follows the same cytotoxicity trend 1 > 2 > 3.

[15] = test system: LoVo cells; test: ROS production (CM-H2DCFDA); format: cell-based, human; conditions: 15 μM complexes, antimycin 3 μM
Procedure: The production of ROS was measured in LoVo cells (10^4 per well) grown for 24 h in a 96-well plate in RPMI medium without phenol red. Samples were loaded with 10 μM 5-(and-6)-chloromethyl-2′,7′-dichlorodihydrofluorescein diacetate acetyl ester (CM-H2DCFDA) (Molecular Probes-Invitrogen, Eugene, OR, USA) for 25 min, in the dark. Afterward, each well was washed with PBS and incubated with tested complexes. The fluorescence intensity in each well was assessed by means of a Fluoroskan Ascent FL (Labsystem, Vantaa, Finland) plate reader (ex: 485 nm; em: 527 nm). Antimycin (3 μM, Sigma), a well-known inhibitor of the electron transport chain at Complex III level, was used as reference compound.
It has been documented that oxidative stress and generation of ROS play a significant role in anticancer activity of copper(II) compounds [22, 81]. To explore the molecular mechanisms underlying the cytotoxicity of newly synthetized copper(II) complexes, cellular production of ROS upon treatment with 15 μM of complex 1, 2 or 3 was monitored in LoVo cells by using the peroxide-sensitive fluorescent probe CM-H2DCFDA (Figure 5). […] Conversely, for all copper complexes there was no ROS induction.

## Cc1cc(C)n(C(C(=O)O)n2nc(C)cc2C)n1.Cc1cc(C)n(C(C(=O)[O-])n2nc(C)cc2C)n1.[Cu+2].[O-][Cl+3]([O-])([O-])[O-] [compound 1, [HC(COOH)(pz^Me2)2]Cu[HC(COO)(pz^Me2)2]·ClO4]
[1]
  IC50: 3.8 ± 1.1 µM
[2]
  IC50: 10.5 ± 2.1 µM
[3]; MTT test, colon carcinoma, read-out: IC50 (µM) ± S.D. HCT-15
  IC50: 8.5 ± 0.6 µM
[3]; HCT-15 cells, MTT
  fold more effective than cisplatin: roughly 2 fold
[4]
  IC50: 10.8 ± 1.3 µM
[5]; MTT test, lung carcinoma, read-out: IC50 (µM) ± S.D. A549
  IC50: 3.6 ± 0.5 µM
[5]; A549 cells, MTT
  fold more effective than cisplatin: roughly 2 fold
[6]
  IC50: 2.5 ± 0.4 µM
[7]; methanol, DMSO, acetonitrile
  solubility in methanol, DMSO and acetonitrile: soluble
[7]; water
  solubility in water: slightly soluble
[8]
  IC50: 4.2 ± 0.9 µM
[9]; 72 h, MTT test, oxaliplatin-resistant colon cancer cells, read-out: IC50 (µM) ± S.D. LoVo-OXP
  IC50: 5.2 ± 0.6 µM
[9]; LoVo-OXP/LoVo
  RF times lower than that of OXP: about 10 times
[9]; RF = IC50 (resistant cells)/IC50 (wild-type cells), LoVo-OXP/LoVo
  RF (resistance factor): 1.2
[10]
  IC50: 67.8 ± 14.9 µM
[11]
  air stability: air stable even as solutions
[12]
  IC50: 6.5 µM
[13]
  cytoplasmic vacuolization (TEM morphology): massive cytoplasmic vacuolization
  hallmarks of apoptosis (TEM morphology): no classical hallmarks of apoptosis
[14]
  cellular uptake efficiency (intracellular copper amount): taken up slightly more efficiently than complex 2

## Antimycin
[15]
  ROS production: markedly stimulated ROS formation
